Test [1] has as its system pSLP76(S376) level in Jurkat cell line. The experiment in a line: Cellular pSLP76(S376) HTRF Assay. To be noted: Jurkat cells, 2 h compound treatment, stimulated with 0.05 μg/mL anti-human CD3 (OKT3) for 30 min. The class given is cell-based.
Test [2] has as its target HPK1 kinase (aal-346. Life Technologies) (Homo sapiens (Human), UniProt Q92918). The experiment in a line: HPK Kinase Activity Assay at 1 mM ATP (TR-FRET). The class given is biochemical. To be noted: HPK1 kinase 40 nM, 0.5 μM STK1 substrate, read-out: Enzymatic activity IC50.

The results in this text go back to patent publication US20240317714A1, “3-[(1H-PYRAZOL-R-YL)OXY]PYRAZIN-2-AMINE COMPOUNDS AS HPK1 INHIBITOR AND USE THEREOF” (BeiGene, Ltd., priority 2020, published 2024).

Sequence of HPK1 kinase (aal-346. Life Technologies) (Q92918 1-346): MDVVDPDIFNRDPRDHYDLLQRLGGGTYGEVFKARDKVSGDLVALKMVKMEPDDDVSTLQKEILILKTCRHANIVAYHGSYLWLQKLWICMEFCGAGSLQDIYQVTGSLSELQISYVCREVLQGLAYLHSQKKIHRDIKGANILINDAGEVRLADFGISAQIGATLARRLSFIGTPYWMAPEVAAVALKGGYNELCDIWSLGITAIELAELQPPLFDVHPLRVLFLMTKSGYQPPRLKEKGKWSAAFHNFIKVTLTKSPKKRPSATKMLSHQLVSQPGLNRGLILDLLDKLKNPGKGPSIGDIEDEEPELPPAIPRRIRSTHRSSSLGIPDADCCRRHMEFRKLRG

`Cc1cc(-c2cnc(N)c(Oc3cnn(C4CCN(C)CC4)c3)n2)cc([C@@]2(O)CCOC2)c1` (single isomer, unassigned) [Example A74A]: the values for the IC50 in test [1] and in test [2] were 0.085 µM and 0.046 µM, respectively.
As to `C[C@@H]1COCCN1c1cc(-c2cnc(N)c(Oc3cnn(C4CCN(C)CC4)c3)n2)cc(C2(O)CCCOC2)c1` (single isomer, unassigned) [Example A90A], the IC50 in test [2] was 0.082 µM.
Consider `C[C@@H]1COCCN1c1cc(-c2cnc(N)c(Oc3cnn(C4CCN(C)CC4)c3)n2)cc(C2(O)CCCOC2)c1` (single isomer, unassigned) [Example A90B], for which the IC50 was determined as 0.1 µM in test [1] (Homo sapiens, Jurkat) and 0.0071 µM in test [2].
The like results for `CC1OCCC1(O)c1cc(-c2cnc(N)c(Oc3cnn(C4CCN(C)CC4)c3)n2)cc(N2CCOC[C@H]2C)c1` (single isomer, unassigned) [Example A95A] were, in that order, 0.124 µM and 0.044 µM.
Turning to `CC1OCCC1(O)c1cc(-c2cnc(N)c(Oc3cnn(C4CCN(C)CC4)c3)n2)cc(N2CCOC[C@H]2C)c1` (single isomer, unassigned) [Example A95B], in test [2], the IC50 was 0.0045 µM.
Take `Cc1cc(-c2cnc(N)c(Oc3cnn(C4CCN(C)CC4)c3)n2)cc(C)c1C(=O)NCCN(C)C` [Example A1, 4-(5-amino-6-((1-(1-methylpiperidin-4-yl)-1H-pyrazol-4-yl)oxy)pyrazin-2-yl)-N-(2-(dimethylamino)ethyl)-2,6-dimethylbenzamide]: the IC50 came to 0.093 µM in test [1] (Homo sapiens, Jurkat) and 0.047 µM in test [2].
The like results for `CNS(=O)(=O)c1cc(C)cc(-c2cnc(N)c(Oc3cnn(C4CCN(C)CC4)c3)n2)c1` [Example A2, 3-(5-amino-6-((1-(1-methylpiperidin-4-yl)-1H-pyrazol-4-yl)oxy)pyrazin-2-yl)-N,5-dimethylbenzenesulfonamide] were, in that order, 0.034 µM and 0.014 µM.
As for `CNC(=O)c1c(C)cc(-c2cnc(N)c(Oc3cnn(C4CCN(C)CC4)c3)n2)cc1C` [Example A3, 4-(5-amino-6-(1-(1-methylpiperidin-4-yl)-1H-pyrazol-4-yloxy)pyrazin-2-yl)-N,2,6-trimethylbenzamide], the IC50 in test [1] (Homo sapiens, Jurkat) was 0.15 µM; in test [2], 0.11 µM.
For `Cc1cc(-c2cnc(N)c(Oc3cnn(C4CCN(C)CC4)c3)n2)cc(C)c1C(=O)NCCN1CCCC1` [Example A4, 4-(5-amino-6-((1-(1-methylpiperidin-4-yl)-1H-pyrazol-4-yl)oxy)pyrazin-2-yl)-2,6-dimethyl-N-(2-(pyrrolidin-1-yl)ethyl)benzamide], the IC50 in test [1] (Homo sapiens, Jurkat) stood at 0.091 µM; in test [2], 0.025 µM.
With `Cc1cc(-c2cnc(N)c(Oc3cnn(C4CCN(C)CC4)c3)n2)cc(C)c1C(=O)NCCN1CCCCC1` [Example A5, 4-(5-amino-6-(1-(1-methylpiperidin-4-yl)-1H-pyrazol-4-yloxy)pyrazin-2-yl)-2,6-dimethyl-N-(2-(piperidin-1-yl)ethyl)benzamide], the IC50 was 0.07 µM in test [1] (Homo sapiens, Jurkat) and 0.035 µM in test [2].
`Cc1cc(-c2cnc(N)c(Oc3cnn(C4CCN(C)CC4)c3)n2)cc(S(N)(=O)=O)c1` [Example A6, 3-(5-amino-6-((1-(1-methylpiperidin-4-yl)-1H-pyrazol-4-yl)oxy)pyrazin-2-yl)-5-methylbenzenesulfonamide]: the IC50 is 0.035 µM in test [1] (Homo sapiens, Jurkat) and 0.044 µM in test [2].
With `CNS(=O)(=O)c1cc(OC)cc(-c2cnc(N)c(Oc3cnn(C4CCN(C)CC4)c3)n2)c1` [Example A7, 3-(5-amino-6-((1-(1-methylpiperidin-4-yl)-1H-pyrazol-4-yl)oxy)pyrazin-2-yl)-5-methoxy-N-methylbenzenesulfonamide], the IC50 in test [1] (Homo sapiens, Jurkat) was determined as 0.062 µM; in test [2] it was 0.02 µM.
The like results for `CNS(=O)(=O)c1cc(-c2cnc(N)c(Oc3cnn(C4CCN(C)CC4)c3)n2)cc(C)c1C` [Example A8, 5-(5-amino-6-((1-(1-methylpiperidin-4-yl)-1H-pyrazol-4-yl)oxy)pyrazin-2-yl)-N,2,3-trimethylbenzemesulfonamide] were, in that order, 0.03 µM and 0.008 µM.
The like results for `Cc1cc(-c2cnc(N)c(Oc3cnn(C4CCN(C)CC4)c3)n2)cc(S(=O)(=O)NCCN2CCCCC2)c1` [Example A9, 3-(5-amino-6-((1-(1-methylpiperidin-4-yl)-1H-pyrazol-4-yl)oxy)pyrazin-2-yl)-5-methyl-N-(2-(piperidin-1-yl)ethyl)benzenesulfonamide] were, in that order, 0.099 µM and 0.046 µM.
Regarding `Cc1cc(-c2cnc(N)c(Oc3cnn(C4CCN(C)CC4)c3)n2)cc(S(=O)(=O)NCCC#N)c1` [Example A10, 3-(5-amino-6-((1-(1-methylpiperidin-4-yl)-1H-pyrazol-4-yl)oxy)pyrazin-2-yl)-N-(2-cyanoethyl)-5-methylbenzenesulfonamide], the IC50 worked out at 0.117 µM in test [1] (Homo sapiens, Jurkat) and 0.044 µM in test [2].
As for `Cc1cc(-c2cnc(N)c(Oc3cnn(C4CCN(C)CC4)c3)n2)cc(C2(NS(C)(=O)=O)CC2)c1` [Example A11, N-(1-(3-(5-amino-6-((1-(1-methylpiperidin-4-yl)-1H-pyrazol-4-yl)oxy)pyrazin-2-yl)-5-methylphenyl)cyclopropyl)methanesulfonamide], the IC50 was determined as 0.054 µM in test [1] (Homo sapiens, Jurkat) and 0.009 µM in test [2].
Take `Cc1cc(CCNS(C)(=O)=O)cc(-c2cnc(N)c(Oc3cnn(C4CCN(C)CC4)c3)n2)c1` [Example A12, N-(3-(5-amino-6-((1-(1-methylpiperidin-4-yl)-1H-pyrazol-4-yl)oxy)pyrazin-2-yl)-5-methylphenethyl)methanesulfonamide]: the IC50 in test [1] (Homo sapiens, Jurkat) worked out at 0.119 µM; in test [2], 0.127 µM.
Take `CNS(=O)(=O)c1cc(C)cc(-c2cnc(N)c(Oc3cnn(C4CCNCC4)c3)n2)c1` [Example A13, 3-(5-amino-6-((1-(piperidin-4-yl)-1H-pyrazol-4-yl)oxy)pyrazin-2-yl)-N,5-dimethylbenzenesulfonamide]: the IC50 was 0.12 µM in test [1] (Homo sapiens, Jurkat) and 0.139 µM in test [2].
Consider `CNS(=O)(=O)c1cc(C)cc(-c2cnc(N)c(Oc3cnn([C@@H]4C[C@H]5CC[C@@H](C4)N5C)c3)n2)c1` [Example A14, 3-(5-amino-6-((1-((1R,3s,5S)-8-methyl-8-azabicyclo[3.2.1]octan-3-yl)-1H-pyrazol-4-yl)oxy)pyrazin-2-yl)-N,5-dimethylbenzenesulfonamide], for which the IC50 came out at 0.059 µM in test [1] (Homo sapiens, Jurkat) and 0.045 µM in test [2].
As to `CCNS(=O)(=O)c1cc(C)cc(-c2cnc(N)c(Oc3cnn(C4CCN(C)CC4)c3)n2)c1` [Example A15, 3-(5-amino-6-((1-(1-methylpiperidin-4-yl)-1H-pyrazol-4-yl)oxy)pyrazin-2-yl)-N-ethyl-5-methylbenzenesulfonamide], the IC50 is 0.157 µM in test [1] (Homo sapiens, Jurkat) and 0.083 µM in test [2].
On the same counts, the results for `CNS(=O)(=O)c1cc(OC(C)C)cc(-c2cnc(N)c(Oc3cnn(C4CCN(C)CC4)c3)n2)c1` [Example A16, 3-(5-amino-6-((1-(1-methylpiperidin-4-yl)-1H-pyrazol-4-yl)oxy)pyrazin-2-yl)-5-isopropoxy-N-methylbenzenesulfonamide; formic acid] are 0.08 µM and 0.018 µM.
For the compound `Cc1cc(-c2cnc(N)c(Oc3cnn(C4CCN(C)CC4)c3)n2)cc([C@H]2CCC(=O)N2)c1` [Example A61A, (R)-5-(3-(5-amino-6-((1-(1-methylpiperidin-4-yl)-1H-pyrazol-4-yl)oxy)pyrazin-2-yl)-5-methylphenyl)pyrrolidin-2-one], in test [2], the IC50 amounted to 0.253 µM.
